Source: PubChem BioAssay (NCI)
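All cell lines were grown in 96-well plates and treated with compound for 48 hours. TGI is the concentration that stops growth completely.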

Experiments:
Assay in all cases: DTP human tumour cell line panel, 48 h
786-0 renal = test system: 786-0 renal
A549 NSCLC = test system: A549 NSCLC
ACHN renal = test system: ACHN renal
BT-549 breast = test system: BT-549 breast
CAKI-1 renal = test system: CAKI-1 renal
CCRF-CEM leukemia = test system: CCRF-CEM leukemia
COLO 205 colon = test system: COLO 205 colon
DU-145 prostate = test system: DU-145 prostate
EKVX NSCLC = test system: EKVX NSCLC
HCC-2998 colon = test system: HCC-2998 colon
HCT-116 colon = test system: HCT-116 colon
HCT-15 colon = test system: HCT-15 colon
HL-60(TB) leukemia = test system: HL-60(TB) leukemia
HOP-62 NSCLC = test system: HOP-62 NSCLC
HOP-92 NSCLC = test system: HOP-92 NSCLC
HS 578T breast = test system: HS 578T breast
HT29 colon = test system: HT29 colon
IGROV1 ovarian = test system: IGROV1 ovarian
K-562 leukemia = test system: K-562 leukemia
KM12 colon = test system: KM12 colon
LOX IMVI melanoma = test system: LOX IMVI melanoma
M14 melanoma = test system: M14 melanoma
MCF7 breast = test system: MCF7 breast
MDA-MB-231 breast = test system: MDA-MB-231 breast
MDA-MB-435 = test system: MDA-MB-435
MDA-N = test system: MDA-N
NCI-H226 lung = test system: NCI-H226 lung
NCI-H23 lung = test system: NCI-H23 lung
NCI-H460 lung = test system: NCI-H460 lung
NCI-H522 lung = test system: NCI-H522 lung
NCI/ADR-RES ovarian = test system: NCI/ADR-RES ovarian
OVCAR-3 ovarian = test system: OVCAR-3 ovarian
OVCAR-4 ovarian = test system: OVCAR-4 ovarian
OVCAR-5 ovarian = test system: OVCAR-5 ovarian
OVCAR-8 ovarian = test system: OVCAR-8 ovarian
PC-3 prostate = test system: PC-3 prostate
RPMI-8226 leukemia = test system: RPMI-8226 leukemia
RXF 393 renal = test system: RXF 393 renal
SF-268 CNS = test system: SF-268 CNS
SF-295 CNS = test system: SF-295 CNS
SF-539 CNS = test system: SF-539 CNS
SK-MEL-2 melanoma = test system: SK-MEL-2 melanoma
SK-MEL-28 melanoma = test system: SK-MEL-28 melanoma
SK-MEL-5 melanoma = test system: SK-MEL-5 melanoma
SK-OV-3 ovarian = test system: SK-OV-3 ovarian
SN12C renal = test system: SN12C renal
SNB-19 CNS = test system: SNB-19 CNS
SNB-75 CNS = test system: SNB-75 CNS
SR leukemia = test system: SR leukemia
SW-620 colon = test system: SW-620 colon
T-47D breast = test system: T-47D breast
TK-10 renal = test system: TK-10 renal
U251 CNS = test system: U251 CNS
UACC-257 melanoma = test system: UACC-257 melanoma
UACC-62 melanoma = test system: UACC-62 melanoma
UO-31 renal = test system: UO-31 renal
A498 renal = test system: A498 renal
MALME-3M melanoma = test system: MALME-3M melanoma
MOLT-4 leukemia = test system: MOLT-4 leukemia

COc1cccc(/C=C2\N=C(c3ccccc3)OC2=O)c1
TGI (786-0 renal): > 100 µM | TGI (A549 NSCLC): > 100 µM | TGI (ACHN renal): > 100 µM | TGI (BT-549 breast): > 100 µM | TGI (CAKI-1 renal): > 100 µM | TGI (CCRF-CEM leukemia): 58.8 µM | TGI (COLO 205 colon): > 100 µM | TGI (DU-145 prostate): > 100 µM | TGI (EKVX NSCLC): > 100 µM | TGI (HCC-2998 colon): > 100 µM | TGI (HCT-116 colon): > 100 µM | TGI (HCT-15 colon): > 100 µM | TGI (HL-60(TB) leukemia): 26 µM | TGI (HOP-62 NSCLC): > 100 µM | TGI (HOP-92 NSCLC): > 100 µM | TGI (HS 578T breast): > 100 µM | TGI (HT29 colon): > 100 µM | TGI (IGROV1 ovarian): > 100 µM | TGI (K-562 leukemia): > 100 µM | TGI (KM12 colon): > 100 µM | TGI (LOX IMVI melanoma): 66.8 µM | TGI (M14 melanoma): > 100 µM | TGI (MCF7 breast): > 100 µM | TGI (MDA-MB-231 breast): > 100 µM | TGI (MDA-MB-435): > 100 µM | TGI (MDA-N): > 100 µM | TGI (NCI-H226 lung): > 100 µM | TGI (NCI-H23 lung): > 100 µM | TGI (NCI-H460 lung): > 100 µM | TGI (NCI-H522 lung): 42.5 µM | TGI (NCI/ADR-RES ovarian): 90.6 µM | TGI (OVCAR-3 ovarian): > 100 µM | TGI (OVCAR-4 ovarian): > 100 µM | TGI (OVCAR-5 ovarian): > 100 µM | TGI (OVCAR-8 ovarian): > 100 µM | TGI (PC-3 prostate): > 100 µM | TGI (RPMI-8226 leukemia): 94.1 µM | TGI (RXF 393 renal): > 100 µM | TGI (SF-268 CNS): > 100 µM | TGI (SF-295 CNS): > 100 µM | TGI (SF-539 CNS): > 100 µM | TGI (SK-MEL-2 melanoma): > 100 µM | TGI (SK-MEL-28 melanoma): > 100 µM | TGI (SK-MEL-5 melanoma): > 100 µM | TGI (SK-OV-3 ovarian): > 100 µM | TGI (SN12C renal): > 100 µM | TGI (SNB-19 CNS): > 100 µM | TGI (SNB-75 CNS): 77.1 µM | TGI (SR leukemia): 65.2 µM | TGI (SW-620 colon): > 100 µM | TGI (T-47D breast): > 100 µM | TGI (TK-10 renal): > 100 µM | TGI (U251 CNS): > 100 µM | TGI (UACC-257 melanoma): > 100 µM | TGI (UACC-62 melanoma): > 100 µM | TGI (UO-31 renal): > 100 µM

NC(=S)NNCC(=O)CC(O)(C(F)(F)F)C(F)(F)Cl (stereo unspecified)
TGI (786-0 renal): > 100 µM | TGI (A498 renal): > 100 µM | TGI (A549 NSCLC): > 100 µM | TGI (ACHN renal): > 100 µM | TGI (BT-549 breast): > 100 µM | TGI (CAKI-1 renal): > 100 µM | TGI (CCRF-CEM leukemia): > 100 µM | TGI (COLO 205 colon): > 100 µM | TGI (DU-145 prostate): > 100 µM | TGI (EKVX NSCLC): > 100 µM | TGI (HCT-116 colon): > 100 µM | TGI (HCT-15 colon): > 100 µM | TGI (HL-60(TB) leukemia): > 100 µM | TGI (HOP-92 NSCLC): > 100 µM | TGI (HS 578T breast): > 100 µM | TGI (HT29 colon): > 100 µM | TGI (IGROV1 ovarian): > 100 µM | TGI (K-562 leukemia): > 100 µM | TGI (KM12 colon): > 100 µM | TGI (LOX IMVI melanoma): > 100 µM | TGI (M14 melanoma): > 100 µM | TGI (MALME-3M melanoma): > 100 µM | TGI (MCF7 breast): > 100 µM | TGI (MDA-MB-231 breast): > 100 µM | TGI (MDA-MB-435): > 100 µM | TGI (MDA-N): > 100 µM | TGI (MOLT-4 leukemia): > 100 µM | TGI (NCI-H226 lung): > 100 µM | TGI (NCI-H23 lung): > 100 µM | TGI (NCI-H460 lung): > 100 µM | TGI (NCI-H522 lung): > 100 µM | TGI (NCI/ADR-RES ovarian): > 100 µM | TGI (OVCAR-3 ovarian): > 100 µM | TGI (OVCAR-4 ovarian): > 100 µM | TGI (OVCAR-5 ovarian): > 100 µM | TGI (OVCAR-8 ovarian): > 100 µM | TGI (PC-3 prostate): > 100 µM | TGI (RPMI-8226 leukemia): > 100 µM | TGI (RXF 393 renal): > 100 µM | TGI (SF-295 CNS): > 100 µM | TGI (SF-539 CNS): > 100 µM | TGI (SK-MEL-2 melanoma): > 100 µM | TGI (SK-MEL-28 melanoma): > 100 µM | TGI (SK-MEL-5 melanoma): > 100 µM | TGI (SK-OV-3 ovarian): > 100 µM | TGI (SNB-19 CNS): > 100 µM | TGI (SNB-75 CNS): > 100 µM | TGI (SR leukemia): > 100 µM | TGI (SW-620 colon): > 100 µM | TGI (T-47D breast): > 100 µM | TGI (TK-10 renal): > 100 µM | TGI (U251 CNS): > 100 µM | TGI (UACC-257 melanoma): > 100 µM | TGI (UACC-62 melanoma): > 100 µM | TGI (UO-31 renal): > 100 µM
